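How tested: cells in 96-well plates exposed to compound for 48 hours at five concentrations. At the GI50, growth is halved. TGI: concentration producing complete growth inhibition.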
Columns and labels:
Experiment in all cases: NCI tumour cell line growth inhibition, 48 h
[1] = tested on: UACC-257 melanoma
[2] = tested on: MALME-3M melanoma
[3] = tested on: T-47D breast
[4] = tested on: M14 melanoma
[5] = tested on: TK-10 renal
[6] = tested on: EKVX NSCLC
[7] = tested on: RXF 393 renal
[8] = tested on: SNB-75 CNS
[9] = tested on: OVCAR-3 ovarian
[10] = tested on: A549 NSCLC

| SMILES | GI50 [1] | TGI [1] | GI50 [2] | TGI [2] | GI50 [3] | TGI [3] | GI50 [4] | TGI [4] | GI50 [5] | TGI [5] | GI50 [6] | TGI [6] | GI50 [7] | TGI [7] | GI50 [8] | TGI [8] | GI50 [9] | TGI [9] | GI50 [10] | TGI [10] |
| --- | --- | --- | --- | --- | --- | --- | --- | --- | --- | --- | --- | --- | --- | --- | --- | --- | --- | --- | --- | --- |
| O=S(=O)(NCCNc1cc(-c2cn(-c3ccccc3)nc2-c2cccc(O)c2)ccn1)c1ccc(Cl)cc1 | 3.39 µM | 10.3 µM | 2.16 µM | 5.47 µM | 2.16 µM | 7.74 µM | 2.54 µM | 8.61 µM | 4.25 µM | 23.1 µM | 2.87 µM | 31.2 µM | 2.86 µM | 10.1 µM | 3.28 µM | 20.4 µM | 2.06 µM | 5.05 µM | 3.89 µM | 18.8 µM |
| Cc1cc(C)n(C(=O)c2nn(-c3ccc(Cl)cc3)cc2O)n1 | 16.6 µM | > 100 µM | 4.59 µM | 57.6 µM | 3.67 µM | > 100 µM | 4.69 µM | > 100 µM | 4.71 µM | > 100 µM | 4.87 µM | > 100 µM | 4.58 µM | > 100 µM | 3.52 µM | 73.1 µM | 12.7 µM | 87.7 µM | 3.72 µM | > 100 µM |
| C#Cc1cccc(Oc2ccc(NC(=O)CCl)cc2)c1 | > 82.5 µM | > 82.5 µM | 37.3 µM | > 82.5 µM | > 82.5 µM | > 82.5 µM | 72.8 µM | > 82.5 µM | > 82.5 µM | > 82.5 µM | > 82.5 µM | > 82.5 µM | > 82.5 µM | > 82.5 µM | > 82.5 µM | > 82.5 µM | > 82.5 µM | > 82.5 µM | > 82.5 µM | > 82.5 µM |
| O=C(Nc1ccc(Cl)cc1)c1cc(S(=O)(=O)Nc2nnc(-c3ccccc3)c(-c3ccccc3)n2)c(SCc2ccccc2)cc1Cl | 21.9 µM | 61.3 µM | 34.2 µM | > 100 µM | 24.8 µM | > 64.2 µM | 21.2 µM | 51.6 µM | 29.8 µM | > 64.4 µM | 32.1 µM | > 63.8 µM | 0.896 µM | > 57.7 µM |  |  | 17.1 µM | 41.2 µM | 37.2 µM | > 62.2 µM |
| COc1ccc(-c2nnc(N3CCN(C(=O)CN4CCN(c5ccc(Cl)cc5)CC4)CC3)nc2-c2ccc(OC)cc2)cc1 | 59.4 µM | > 100 µM | 21.5 µM | > 100 µM | 4.51 µM | 74.8 µM | 35.8 µM | > 100 µM | 58.5 µM | > 100 µM | > 100 µM | > 100 µM | 18.9 µM | > 100 µM | 19.5 µM | 65.3 µM | 28.7 µM | > 100 µM | 27.4 µM | > 100 µM |
| O=C1c2ccn(CCCCN3CCCCC3)c2C(=O)c2c1c(O)c1ccccc1c2O | 5.83 µM | 12.2 µM | 7.58 µM | 20.4 µM | 23.6 µM | > 59.6 µM | 2.46 µM | 9.7 µM | 13.6 µM | 27.9 µM | 15.2 µM | 36.1 µM | 5.54 µM | 18 µM | 8.45 µM | > 73.8 µM | 10.5 µM | 41.9 µM | 10.3 µM | 33.9 µM |
| NCCP(=O)(O)O |  | > 100 µM |  | > 100 µM |  | > 100 µM |  | > 100 µM |  | > 100 µM |  | > 100 µM |  | > 100 µM |  | > 100 µM |  | > 100 µM |  | > 100 µM |
| C[C@]12C3CC[C@@]4(CO)C[C@]3(CCC1[C@](C)(C(=O)O)CC[C@@H]2O)CC4=O (stereo not given in full) | > 100 µM | > 100 µM | > 100 µM | > 100 µM | > 100 µM | > 100 µM | > 100 µM | > 100 µM | > 100 µM | > 100 µM | > 100 µM | > 100 µM | > 100 µM | > 100 µM | > 100 µM | > 100 µM | > 100 µM | > 100 µM | > 100 µM | > 100 µM |
| C=C1CC2(CCCC3(CC(=C)C(=O)O3)C2(C)C)OC1=O (stereo not given) |  | 5.78 µM |  | 3.61 µM |  | 21.3 µM |  | 8.58 µM |  | 6.31 µM |  | 18.4 µM |  | 31 µM |  | 34.4 µM |  | 6.78 µM |  | 28.9 µM |
| NC(=S)N/N=C\c1nccc2c(N)cccc12 | 0.624 µM | 9.44 µM | 0.316 µM | 3.08 µM | 0.454 µM | > 100 µM | 0.153 µM | 0.317 µM | 0.961 µM | > 100 µM | 0.803 µM | > 100 µM | 0.248 µM | 17.1 µM | 0.139 µM | 87.5 µM | 0.306 µM | > 100 µM | 0.484 µM | > 27 µM |
| C1=C(c2ccccc2)SC=C(c2ccccc2)S1 |  | > 100 µM |  | > 100 µM |  | > 100 µM |  | > 100 µM |  | > 100 µM |  | > 100 µM |  | 48.1 µM |  | 64 µM |  | > 100 µM |  | > 100 µM |
| O=c1c2ccccc2nc(-c2ccccc2)n1O |  | > 100 µM |  | > 100 µM |  | > 100 µM |  | > 100 µM |  | > 100 µM |  | > 100 µM |  | > 100 µM |  | > 100 µM |  | > 100 µM |  | > 100 µM |
| Oc1c(I)cc(-c2nc3ccccc3s2)cc1CN(Cc1ccccn1)Cc1ccccn1 | 0.87 µM | > 100 µM | 0.288 µM | 4.79 µM | 0.666 µM | 83.3 µM | 0.357 µM | 13.1 µM | 0.46 µM | > 100 µM | 0.321 µM | > 100 µM | 1.08 µM | 5.61 µM |  |  | 0.534 µM | 11.7 µM | 0.427 µM | > 100 µM |
| COc1ccc(CC(NC(=O)[C@H](C)NC(=O)CN2CCOCC2)C(=O)N[C@@H](Cc2ccccc2)C(=O)[C@@]2(C)CO2)cc1 (stereo not given in full) | 0.296 µM |  | 0.281 µM | 1.41 µM | 0.208 µM | 0.482 µM | 0.284 µM | 2.5 µM | 0.47 µM | 4.93 µM | 0.469 µM | > 100 µM | 0.237 µM | 0.658 µM | 0.175 µM | 0.427 µM | 0.198 µM | 0.421 µM | 0.461 µM | > 22.9 µM |

Source: PubChem BioAssay (NCI)
